Test results published in patent US20250361231A1, “FUSED RING COMPOUNDS WITH SULFUR-CONTAINING SUBSTITUENTS, PREPARATION METHODS, INSECTICIDE COMPOSITIONS, AND APPLICATION” (priority 2022, published 2025).

Tests used:
Format in all cases: in vivo
Nilaparvata lugens = assay: Activity against Nilaparvata lugens, sprayed leaf discs, adults; settings: for mortality at 100 ppm: Nilaparvata lugens, foliar, 144 h, test rate 100 ppm, 6 days after incubation; for effect: application rate 45 ppm
Protocol: Cotton leaf discs were placed on agar in 24-well microtiter plates and sprayed with agueous test solutions prepared from 10,000 ppm DMSO stock solutions. After drying the leaf discs were infested with adult Nilaparvata lugens. The samples were checked for mortality 6 days after incubation.

Aphis craccivora Koch = assay: Activity against Aphis craccivora Koch, pea seedling roots in test solution; settings: for mortality at 100 ppm: Aphis craccivora, 144 h, test rate 100 ppm, 6 days after placing seedlings into test solutions; for effect: application rate 4 ppm
Protocol: (§1) Roots of pea seedlings infested with an aphid population of mixed ages were placed directly into agueous test solutions prepared from […] stock solutions. The samples were assessed for mortality 6 days after placing seedlings into test solutions.

Myzus persicae = assay: Activity against Myzus persicae (green peach aphid), pea seedling roots in test solution; settings: 144 h, test rate 100 ppm, 6 days after placing seedlings into test solutions
Protocol: (§2) This test case is used to illustrate the insecticidal activity inhibition (%) of compounds with the structure shown in formula (I) (dosage of 100 ppm).
as §1

Plutella xylostella = assay: Activity against Plutella xylostella, artificial diet in 24-well plates, L2 larvae; settings: for percent effect (mortality or growth inhibition) at 100 ppm: Plutella xylostella, 120 h, application rate 100 ppm, 5 days after infestation, read-out: effect in at least one of the two categories (mortality or growth inhibition); for effect: application rate 4 ppm
Protocol: (§3) 24-well microtiter plates with artificial diet were treated with agueous test solutions prepared from 10,000 ppm DMSO stock solutions by pipetting. After drying, the plates were infested with L2 larvae (10 to 15 per well). The samples were assessed for mortality and growth inhibition in comparison to untreated samples 5 days after infestation.

Leucania separate = assay: Activity against Leucania separate, sprayed maize sprouts, L2 larvae; settings: 96 h; application rate 100 ppm; 4 days after infestation; read-out: effect in at least one of the two categories (mortality or growth inhibition)
Protocol: as §2
as §3, with “Maize sprouts placed onto an agar layer in 24-well” for “24-well”, “plates” for “plates with artificial diet”, “spraying.” for “pipetting.”, “(6” for “(10”, “10” for “15”, “4” for “5”

Chilo suppressalis = assay: Activity against Chilo suppressalis, soaked rice seedlings, L2 larvae; settings: application rate 5 ppm, after 96 hours, read-out: effect (mortality rates)
Protocol: Take 5-6 rice seedlings, each 3-4 cm in height, soak them thoroughly in the prepared solution, After drying, the plates were infested with L2 larvae (10 per well). Keep them in an observation room for rearing and observation. Use 0.1% warm water as a blank control. Incubate them in an observation room at 25 to 27° C. After 96 hours, assess the samples based on mortality rates

Laphygma exigua = assay: Activity against Laphygma exigua, artificial diet in 24-well plates, L2 larvae; settings: application rate 4 ppm
Protocol: as §3

| SMILES | mortality at 100 ppm (Nilaparvata lugens) [%] | mortality at 100 ppm (Aphis craccivora Koch) [%] | mortality at 100 ppm (Myzus persicae) [%] | percent effect (mortality or growth inhibition) at 100 ppm (Plutella xylostella) [%] | percent effect (mortality or growth inhibition) at 100 ppm (Leucania separate) [%] | effect (Nilaparvata lugens) [%] | effect (Aphis craccivora Koch) [%] | mortality at 5 ppm (Chilo suppressalis) [%] | effect (Laphygma exigua) [%] | effect (Plutella xylostella) [%] |
| --- | --- | --- | --- | --- | --- | --- | --- | --- | --- | --- |
| CCS(=O)(=O)c1cc2nc(C)n(C)c2nc1-c1nc2cc(C(F)(F)F)cnc2n1C [Compound I-2] | ≥ 90 | ≥ 90 | ≥ 90 | ≥ 90 | ≥ 90 | – | – | – | – | – |
| CCS(=O)(=O)c1cc2nc(C(F)(F)F)sc2nc1-c1nc2cc(C(F)(F)F)cnc2n1C [Compound I-100] | – | – | – | – | – | 95 | 100 | – | – | – |
| CCS(=O)(=O)c1cc2nc(C3CC3)n(C)c2nc1-c1nc2cc(C(F)(F)F)cnc2n1C [Compound I-1] | ≥ 90 | ≥ 90 | ≥ 90 | ≥ 90 | ≥ 90 | – | 100 | – | – | – |
| CCS(=O)(=O)c1cc2nc(C3CC3)sc2nc1-c1nc2cc(C(F)(F)F)cnc2n1C [Compound I-73] | ≥ 90 | ≥ 90 | ≥ 90 | ≥ 90 | ≥ 90 | 95 | 100 | 100 | 100 | 100 |
| CCS(=O)(=O)c1cc2sc(C3CC3)nc2nc1-c1nc2cc(C(F)(F)F)cnc2n1C [Compound I-109] | ≥ 90 | ≥ 90 | ≥ 90 | ≥ 90 | ≥ 90 | 95 | 100 | 100 | 100 | 100 |
